{
  "source": "the supplement of paper PMC3493320",
  "data": [
    {"system": "NCI-H295R", "test": "IC50 (antiproliferative, ATP content)", "conditions": "48 h", "outline": "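Adrenocortical carcinoma cells in 1536-well plates (1500 per well, serum-free DMEM plus ITS, overnight culture) were exposed for 48 h at 37 °C, 5% CO2 to pin-transferred compounds at 8 final concentrations ranging 0.6 nM to 46 µM. ATP content was then read as CellTiter-Glo luminescence and normalised to vehicle and positive-control wells. The IC50 came from logistic curve fits, and any compound lacking a concentration response was recorded as above the top dose.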", "units": {"IC50": "µM"}, "values": [
      {"smiles": "CCCCC[C@H](O)/C=C/[C@@H]1[C@@H](C/C=C\\CCCC(=O)O)[C@@H](O)C[C@H]1O.COC(N)(CO)CO", "IC50": "> 46"},
      {"smiles": "O=C(O)CCCCC(=O)O", "IC50": "> 46"},
      {"smiles": "CCN(CC)C(=O)N[C@H]1C[C@@H]2c3cccc4[nH]cc(c34)C[C@H]2N(C)C1", "IC50": "> 46"},
      {"smiles": "O=C(OCc1ccccc1)c1ccccc1", "IC50": "> 46"},
      {"smiles": "CC(C)(C)NC(=O)[C@H]4CC[C@@H]3[C@]4(C)CC[C@H]1[C@H]3CC[C@H]2NC(=O)\\C=C/[C@]12C", "IC50": "> 46"},
      {"smiles": "CC(=O)OCC(=O)[C@@]53/N=C(/C)O[C@@H]5C[C@H]2[C@@H]4CC\\C1=C\\C(=O)\\C=C/[C@]1(C)[C@H]4[C@@H](O)C[C@@]23C", "IC50": "> 46"},
      {"smiles": "CCCOc1cc(N)ccc1C(=O)OCCN(CC)CC.Cl", "IC50": "> 46"},
      {"smiles": "Nc1ncnc2c1ncn2[C@@H]1O[C@H](COP(=O)(O)OP(=O)(O)OP(=O)(O)O)[C@@H](O)[C@H]1O", "IC50": "> 46"},
      {"smiles": "C#CCN(C)CCCOc1ccc(Cl)cc1Cl.Cl", "IC50": "> 46"},
      {"smiles": "CC(O)[C@H]1CC[C@H]2[C@@H]3CC[C@@H]4C[C@@H](O)CC[C@]4(C)[C@H]3CC[C@]12C", "note": "(stereo partly specified)", "IC50": "> 46"},
      {"smiles": "c1ccc2sc(SSc3nc4ccccc4s3)nc2c1", "IC50": "> 46"},
      {"smiles": "CC(=O)OCC(=O)NCCCOc1cccc(CN2CCCCC2)c1.Cl", "IC50": "> 46"},
      {"smiles": "Cc1nc2ccccn2c(=O)c1CCN1CCC(C(=O)c2ccc(F)cc2)CC1", "IC50": "> 46"},
      {"smiles": "CN(C(=O)c1c(O)c2ccccc2n(C)c1=O)c1ccccc1", "IC50": "> 46"},
      {"smiles": "CN1C(=O)CCS(=O)(=O)C1c1ccc(Cl)cc1", "note": "(stereo unspecified)", "IC50": "> 46"},
      {"smiles": "ClC1=CC=C(\\C3=C2/CCNCC2)C(CCC4=C3N=CC=C4)=C1", "IC50": "> 46"},
      {"smiles": "CN1CCN(C(c2ccccc2)c2ccc(Cl)cc2)CC1.Cl", "note": "(stereo unspecified)", "IC50": "> 46"},
      {"smiles": "OCC1(CO)COC(C(Cl)(Cl)Cl)OC1", "IC50": "> 46"},
      {"smiles": "[H][C@]1(CC3)[C@]([H])4[C@]([C@@H]([C@@](C)=O)CC4)(C)CC[C@@]([H])1[C@]2(C)[C@]3([H])C[C@H](O)CC2", "IC50": "> 46"},
      {"smiles": "N=C(N)N1CCc2ccccc2C1.N=C(N)N1CCc2ccccc2C1.O=S(=O)(O)O", "IC50": "> 46"},
      {"smiles": "CN(C)CCCN1c2ccccc2Sc2ccc(C(F)(F)F)cc21.Cl", "IC50": "> 46"},
      {"smiles": "O=C3/C=C4/CC[C@@H]2[C@H](CC[C@]1(C)C(=O)CC[C@H]12)[C@@]4(C)CC3", "IC50": "> 46"},
      {"smiles": "NCCCC[C@H](N)C(=O)O", "IC50": "> 46"},
      {"smiles": "Cc1ccc(/C(=C\\CN2CCCC2)c2ccccn2)cc1", "IC50": "> 46"},
      {"smiles": "CC1C(=O)CC2C3(C)CCC2(C(C)C(=O)O)C(=O)C13", "note": "(stereo unspecified)", "IC50": "> 46"},
      {"smiles": "Cn1c(=O)c2c(ncn2CC(O)CO)n(C)c1=O", "note": "(stereo unspecified)", "IC50": "> 46"},
      {"smiles": "OC[C@H]1OC([S][Au])[C@H](O)[C@@H](O)[C@@H]1O", "note": "(stereo partly specified)", "IC50": "> 46"},
      {"smiles": "O=c1[n-]c(=O)n(Cl)c(=O)n1Cl.[Na+]", "IC50": "> 46"},
      {"smiles": "COc1ccc2[nH]c(S(=O)Cc3ncc(C)c(OC)c3C)nc2n1", "note": "(stereo unspecified)", "IC50": "> 46"},
      {"smiles": "Cc1cc(-n2nc3ccc(Cl)cc3n2)c(O)c(C(C)(C)C)c1", "IC50": "> 46"},
      {"smiles": "NC(=O)c1cnccn1", "IC50": "> 46"},
      {"smiles": "CCN1CCC[C@H]1CNC(=O)c1c(O)c(Cl)cc(Cl)c1OC", "IC50": "> 46"},
      {"smiles": "OCCOCCN1CCN(C2=Nc3ccccc3Sc3ccccc32)CC1", "IC50": "> 46"},
      {"smiles": "CN(C)[C@@H]1C(O)=C(C(N)=O)C(=O)[C@@]2(O)C(O)=C3C(=O)c4c(O)cccc4[C@@](C)(O)[C@H]3[C@H](O)[C@@H]12.Cl", "IC50": "> 46"},
      {"smiles": "C[S+](CC[C@H](N)C(=O)O)C[C@H]1O[C@@H](n2cnc3c(N)ncnc32)[C@H](O)[C@@H]1O.[Cl-]", "note": "(stereo partly specified)", "IC50": "> 46"},
      {"smiles": "Nc1ccn([C@@H]2O[C@H](CO)[C@@H](O)[C@@H]2O)c(=O)n1", "IC50": "> 46"},
      {"smiles": "CCOC(=O)[C@H](CCc1ccccc1)N[C@@H](C)C(=O)N1Cc2ccccc2C[C@H]1C(=O)O.Cl", "IC50": "> 46"},
      {"smiles": "O=C(CCCN1CCC2(CC1)C(=O)NCN2c1ccccc1)c1ccc(F)cc1", "IC50": "> 46"},
      {"smiles": "C[C@@H](N)C(=O)O", "IC50": "> 46"},
      {"smiles": "C1CCC(NC2CCCCC2)CC1", "IC50": "> 46"},
      {"smiles": "CC1OC(C)OC(C)O1", "note": "(stereo unspecified)", "IC50": "> 46"}
    ]}
  ]
}
